# Measurements as given in paper PMC4851381, “High Throughput Screening Identifies Novel Lead Compounds with Activity against Larval, Juvenile and Adult Schistosoma mansoni” (PLoS Neglected Tropical Diseases, 2016).
# Like-named read-outs stand apart in the source and are kept apart here.
# Columns and labels:
# S. mansoni schistosomula [1] = system: S. mansoni schistosomula; set-up: method as in PMID 19597541, PMID 20668553; conditions: cited from earlier work
# S. mansoni adult worms = experiment: Adult worm assay, single point and dose response; assay type: cell-based; conditions: Schistosoma mansoni
# Procedure: (§1) For production of S. mansoni juvenile or adult worms, mice were infected subcutaneously under mild isoflurane (Merial Animal Health Ltd (UK)) anaesthesia with, respectively 1400 (for juveniles) or 450 cercariae (for adults). Worms were recovered from infected mice using sterile techniques by portal perfusion 3 weeks (for juveniles) or 6 weeks (for adults) post-infection using warm perfusion medium (Dulbecco’s Modified Eagle’s Medium [DMEM], 2mM L-glutamine, 100 Units/ml penicillin, 100μg/ml streptomycin, 20mM Hepes, 10 Units/ml heparin [Sigma, UK] [8]. Adult worms were washed free of red blood cells using the perfusion medium, and finally placed in culture in complete medium (cDMEM: DMEM, 2mM L-glutamine, 100 Units/ml penicillin, 100μg/ml streptomycin, 10% foetal calf serum (FCS) at 37°C, in an atmosphere of 5% CO2. Juvenile worms were sedimented successively following washing with cold perfusion medium and then suspended in cold cDMEM until dispensed to avoid attachment to the plastic tubes.
# (§2) For the juvenile assay the concentration of worms was adjusted to 40/ml cDMEM and, prior to dispensing, the suspension was cooled on ice to prevent adherence of the worms to the plastic bottles. After swirling to resuspend worms,150μL of suspension was added to the wells of 96 well microtitre plates (Nunc, Thermo Fisher Scientific, UK). Wells were quickly checked and those with <5 worms were marked. The remainder were made up to 200μL and the deficient wells topped up with a worm suspension to ensure that all wells had ≥5 worms. The adult worm assay was as described in [8] except that 1ml cultures containing 3 worm pairs were generally used. Both the juvenile and adult worm assays were assessed for activity on days +1 and +5. Drug effects were determined by assessing the viability of individual worms and calculating the mean percentage inhibition, a hit being defined as ≥70% reduction in viability.
# (§3) The primary HTS and subsequent juvenile and adult screens were run as single point (SP) assays at 10–12.5μM depending on the concentrations in the compound collections. Compounds were tested in duplicate. Where necessary, repeat testing was carried out on re-supplied liquid samples. All compounds of interest were re-tested as solid compounds or by repeat synthesis and activity confirmed.
# (§4) Compounds with activity against all three parasite stages were tested in parallel dose response (DR) assays against juvenile worms and MRC-5 cells. Promising compounds were then tested in the adult DR. For the parasite DR (larvae, juveniles and adults) the concentrations tested were two fold dilutions starting from 2x the primary screening concentrations (i.e. 20–25μM).
# (§5) IC50 values were calculated from the drug concentration–response curves using Microsoft XLfit version 5.1.0.0 (2006–2008 ID Business Solutions Ltd). Results were expressed as the geometric mean IC50.
# [2] = Cytotoxicity assay (Alamar blue); assay type: cell-based; conditions: human
# Procedure: Activity against mammalian cells was determined using MRC-5 cells. Cells were maintained in Minimum Essential Medium supplemented with glutamax (Gibco, UK), 1% non-essential amino acids (Gibco, UK) and 10% Foetal bovine serum (Gibco, UK). They were harvested by treatment with 0.25% Trypsin-EDTA for 3 minutes and diluted to 1x10^5/ml. 100μl aliquots of the cell suspension were then plated in 96 well plates (Nunc, Thermo Fisher Scientific, UK). The plates were left to incubate for 24 hours at 37°C and 5% CO2 in a humidified incubator. Cytotoxicity DR assays were set up 24 hours post incubation at 5% CO2 and 37°C, with compounds prepared at 3-fold dilutions starting from 50μM. Dilutions were added to the cells such that the final % DMSO/well was 0.5%. Each drug concentration was tested in duplicate. On each 96 well plate there were negative control wells of media only, MRC-5 cells only and MRC-5 cells with 0.5% DMSO. For positive control wells doxorubicin hydrochloride (Sigma-Aldrich, UK) was added to the cells at 100μM concentration. The cultures were then maintained for a further 72 hours at 37°C and 5% CO2. Drug cytotoxicity was determined using the redox indicator Alamar blue (AbD Serotec, UK). 10μl of Alamar Blue was added to each well and the plates incubated for 4 hours at 37°C and 5% CO2 atmosphere. The fluorescence intensity was measured using a Spectramax Gemini plate reader (Molecular Devices, UK) using an excitation wavelength of 530 nm and an emission wavelength of 580 nm.
# as §5
# S. mansoni schistosomula [3] = experiment: Larval HTS and larval dose response (image-based phenotype and motility of schistosomula); assay type: cell-based, Schistosoma mansoni; set-up: Motility score: scale not given here; conditions: for EC50: Schistosoma mansoni, 72 h, 3 day assay, geometric mean; for Motility score / Phenotype score: 10μM control wells
# Procedure: Experiments were performed using the Puerto Rican strain of S. mansoni maintained in Biomphalaria glabrata and CD1 mice. The strain of snail was one bred by Prof Mike Doenhoff (Nottingham University) for high susceptibility to S. mansoni and ease of breeding in large numbers to high density. Careful attention was paid to controlling infections with rotifers which otherwise would contaminate the HTS schistosomula preparations as well as affecting snail viability. This included recovery of egg masses on short length pieces of polypropylene tubing placed into the breeding tanks and treatment of these with 3 x 10 seconds immersion in 70% ethanol with 3 minutes soaking in clean water in between alcohol treatments. Schistosomula were mechanically prepared as previously described with the modification of using a 45% and 70% Percoll gradient, and the cercarial heads recovered from the 70% layer. All centrifugation steps were done at 350x g. The schistosomula generated were then incubated overnight in M169 supplemented with 100U/ml Penicillin, 300μg/ml Streptomycin, 0.25μg/ml Fungizone (Amphotericin B) (Gibco, UK) and 5% Foetal Calf serum.
# The larval HTS was run as described previously. Compound libraries were provided in 384 well plates as liquid either (i) small volumes in polypropylene 384 V-bottom storage plates (Greinerbio-one) that were diluted and 500nL dispensed into black 384 imaging plates (ViewPlate 6007460; PerkinElmer) using the Biomek FxP (Beckman Coulter) or (ii) in an assay-ready format from which a 40nL volume was transferred into wells of imaging plates. […] Therefore, to prevent fungal contamination 0.25μg/ml (0.27μM) of amphotericin B (AMP-B) was added to cultures both during the overnight culture prior to plating and during the 3 day assay.
# The primary HTS and subsequent juvenile and adult screens were run as single point (SP) assays at 10–12.5μM depending on the concentrations in the compound collections. Compounds were tested in duplicate. Where necessary, repeat testing was carried out on re-supplied liquid samples.
# as §4, §5
# [4] = system: S. mansoni juvenile worms; experiment: Juvenile worm assay (3 week old worms), single point and dose response; assay type: cell-based; conditions: Schistosoma mansoni
# Procedure: as §1, §2, §3, §4, §5
# Pyoellii = system: Pyoellii; set-up: method as in ChEMBL; conditions: reported by Novartis in Science paper; ref ChEMBL; cited from earlier work
# P. falciparum = system: P. falciparum; set-up: method as in Pubchem; conditions: ref Pubchem; cited from earlier work
# S. mansoni schistosomula [5] = experiment: Larval HTS and larval dose response (image-based phenotype and motility of schistosomula); assay type: cell-based, Schistosoma mansoni; set-up: Motility score: scale not given here; conditions: 10μM control wells, -AMP-B
# TRPC4 = system: TRPC4; set-up: method as in ChEMBL; conditions: ref ChEMBL; cited from earlier work
# TrxR1 = system: TrxR1; set-up: method as in ChEMBL; conditions: ref ChEMBL; cited from earlier work
# [6] = 24 h, day 1, read-out: Adult % motility reduction DAY 1
# [7] = 120 h, day 5, read-out: Adult % motility reduction DAY 5
# [8] = value in parentheses (second sample; solid vs original liquid sample)
# [9] = MRC-5 cells, first value of cell, 72 hours, read-out: MRC5 CC50
# [10] = MRC-5 cells, value in parentheses (second sample; solid vs original liquid sample), read-out: MRC5 CC50
# [11] = 24 h, day 1, read-out: Juvenile (% motility reduction) DAY 1
# [12] = 120 h, day 5, read-out: Juvenile (% motility reduction) DAY 5
# [13] = first value of cell, geometric mean, * n = 1
# [14] = Enamine library plates, negative control adjusted to zero
# [15] = GSK library plates, negative control adjusted to zero
# [16] = MMV library plates, mean ±SD, negative control adjusted to zero
# [17] = MMV library plates, negative control adjusted to zero
# [18] = Pfizer library plates, negative control adjusted to zero
Structure (SMILES),inhibition at 12.5 µM (S. mansoni adult worms; [6]) [%],inhibition at 12.5 µM (S. mansoni adult worms; [7]) [%],"EC50 (S. mansoni adult worms; first value of cell, * n = 1) [µM]",EC50 (S. mansoni adult worms; [8]) [µM],"CC50 at 72 h [2, 9] [µM]",EC50 (S. mansoni schistosomula [3]) [µM],"inhibition at 12.5 µM [4, 11] [%]","inhibition at 12.5 µM [4, 12] [%]","EC50 [4, 13] [µM]","EC50 [4, 8] [µM]",other results
"C[C@@H]1[C@H](O)[C@@H](C)/C=C/C=C/C=C/C=C/C=C/C=C/C=C/[C@H](O[C@@H]2O[C@H](C)[C@@H](O)[C@H](N)[C@@H]2O)C[C@@H]2O[C@](O)(C[C@@H](O)C[C@@H](O)[C@H](O)CC[C@@H](O)C[C@@H](O)CC(=O)O[C@H]1C)C[C@H](O)[C@H]2C(=O)O [AMP-B, amphotericin B]",–,–,–,–,–,–,–,–,–,–,concentrations reported to have lethal activity (S. mansoni schistosomula [1]): 1 to 10 µM
COc1ccccc1NC1=NN=C(c2cccc(N3CCCC3=O)c2)CS1 [compound 2389],12.5,100,6,7.1,> 50,6.1,0,100,5.1,5,"CC50 at 72 h [2, 10]: > 50 µM"
c1ccc(-c2[nH]c3ccccc3c2C(c2ccccn2)N2CCCC2)cc1 (centres unmarked) [compound 1956],56,81,3.2,11.8,> 50,0.5,75,100,2.5,3.7,–
Cc1ccccc1C(=O)N1N=C(Nc2ccccc2)SC1(C)C [compound 1355],75,100,5.3,11.2,> 50,6.7,75,75,5.8,14.3,"CC50 at 72 h [2, 10]: 33.8 µM"
c1ccc(-c2cc(N3CCN(c4ccccn4)CC3)nc(-c3ccccn3)n2)nc1 [CHEMBL579352],–,–,–,–,–,–,–,–,–,–,activity vs Pyoellii (Pyoellii): 17.5 nM; activity vs two Pfalciparum strains (P. falciparum): < 100 nM
Cc1c(-c2cnccn2)ssc1=S [Oltipraz],50,95,0.85,–,–,0.5,51,100,0.8,–,CC50 at 72 h ([2]; MRC5 CC50): > 50 µM; Motility score (S. mansoni schistosomula [3]; [14]): -0.91 ±0.04; Phenotype score (S. mansoni schistosomula [3]; [14]): -0.49 ±0.13; Motility score (S. mansoni schistosomula [3]; [15]): -0.93 ±0.03; Phenotype score (S. mansoni schistosomula [3]; [15]): -0.64 ±0.06; Phenotype score (S. mansoni schistosomula [3]; [16]): -0.55 ±0.06; Motility score (S. mansoni schistosomula [3]; [17]): -0.95 ±0.02; Motility score (S. mansoni schistosomula [3]; [18]): -0.94 ±0.02; Phenotype score (S. mansoni schistosomula [3]; [18]): -0.56 ±0.08
O=C(C1CCCCC1)N1CC(=O)N2CCc3ccccc3C2C1 (centres unmarked) [Praziquantel],76,88,0.3,–,–,1.9,57,58.4,4.7,–,CC50 at 72 h ([2]; MRC5 CC50): > 50 µM; Motility score (S. mansoni schistosomula [3]; +AMP-B (0.25μg/ml)): -0.57 ± 0.10; Phenotype score (S. mansoni schistosomula [3]; +AMP-B (0.25μg/ml)): -0.38 ± 0.08; Motility score (S. mansoni schistosomula [3]; [14]): -0.52 ±0.08; Phenotype score (S. mansoni schistosomula [3]; [14]): -0.35 ±0.09; Motility score (S. mansoni schistosomula [3]; [15]): -0.67 ±0.12; Phenotype score (S. mansoni schistosomula [3]; [15]): -0.50 ±0.10; Phenotype score (S. mansoni schistosomula [3]; [16]): -0.37 ±0.09; Motility score (S. mansoni schistosomula [3]; [17]): -0.57 ±0.10; Motility score (S. mansoni schistosomula [3]; [18]): -0.63 ±0.07; Phenotype score (S. mansoni schistosomula [3]; [18]): -0.37 ±0.04; Motility score (S. mansoni schistosomula [5]): -0.53 ± 0.10; Phenotype score (S. mansoni schistosomula [5]): -0.21 ± 0.12
COc1ccc(-c2nnc3ccc(-c4cccc(C(C)C)c4)cn23)cc1OC [compound 1507],75,88,1.6,3,18.6,6.6,75,75,4,9.8,–
c1ccc(Oc2ccc(-c3cncc(-c4ccc5[nH]ccc5c4)n3)cc2)cc1 [compound 2045],37,88,3.7,11,20,1.4,50,100,2.1,3.6,–
COc1ccc(-c2cnc3cnc(-c4cccc(OC(C)C)c4)cn23)cc1 [compound 1945],75,75,4.9,–,40.1,6.7,75,75,5.7,13.7,–
CCOC(=O)C1CCN(C(c2ccccn2)c2c(C)[nH]c3ccccc23)CC1 (centres unmarked) [CHEMBL1390809],–,–,–,–,–,–,–,–,–,–,activity as an activator of TRPC4 (TRPC4): 5 to 10 µM; activity vs TrxR1 (TrxR1): 1.5 µM
Clc1ccc(SCc2cc(N3CCCC3)nc(-c3ccccn3)n2)cc1 [compound 1716],64,98,2.8,5.4,> 50,0.3,0,84,11,9.5,"CC50 at 72 h [2, 10]: > 50 µM"
